The values that follow come from patent US10105351B2, “Neurofibromatoses therapeutic agents and screening for same” (University of Central Florida Research Foundation, Inc., priority 2012, dated 2018).

For data set [1], the system named is normal nf2^flox2/flox2 Schwann cells. The data set can be described thus: Selectivity assay: cell viability of normal Schwann cells. The note with it: one assay with mouse nf2^flox2/flox2 Schwann cells at P2.
Procedure: (§3) The compounds were tested at 10 uM in 8 replicates in a 384-well format using the live cell protease assay (CellTiter-Fluor) and the orthogonal ATP-based assay (CellTiter-GLO) (both from Promega). We tested the compounds on two Merlin-null Schwann cell lines, L1, (used in the LOPAC screen) at passages ranging from 13-23 and an independently-derived line, L2, tested at passage 20 and 21.
For data set [2], the system named is merlin-null Schwann cells. The data set is described as follows: Orthogonal ATP-based luminescence cell viability assay (CellTiter-GLO). The note with it: for Orthogonal Assay Average of two, cell viability: average of two assays with one cell line at P18-23. In general terms: In ATP-based viability assays light output follows the ATP content of the culture.
Data set [3] deals with merlin-null Schwann cells. The data set can be described thus: Primary assay: live cell protease assay (CellTiter-Fluor), cell viability. Conditions: for Primary Assay (m +/− sd), cell viability: mean and SD of four assays.
Procedure: (§4) Cell viability was measured with the CellTiter-Fluor Live Protease Assay (Promega). […] One way ANOVA Kurskal-Wallis test was used with a Dunn's Multiple Comparison post-test.
as §3
For data set [4], the system named is merlin-null Schwann cells. The data set is described as follows: Propidium iodide and BrdU/7AAD flow cytometer cell cycle assays. Format: cell-based, mouse. On the procedure: FIGS. 9A-D. Phenotypic Proliferation Assays. (A) Merlin-null Schwann cells (384-well format) were treated with the indicated compounds and concentrations for 24 hours and labeled with EdU during the last 9 hours. Incorporation of EdU into S-phase cells was read on a Biotek H1 Hybrid reader. (B) The plate was also imaged with a Trophos high resolution fluorescence Plate Runner. (C). Merlin-null Schwann cells were grown in 6-well format and were treated with 5 uM compounds for 22 hours, then labeled with PI. The cell population profile is shown and was analyzed using the ModFit program. (D). Merlin-null Schwann cells were grown as in C but were labeled with BrdU during the final 3 hours of treatment then stained with 7AAD. The distribution of BrdU- and 7AAD-labelled cells is shown and was analyzed with Diva program. The BD Cantos II flow cytometer was used above.
In yet another aspect, identification of compounds that affect proliferation of Merlin-null mouse Schwann cells can be performed by conducting a Click-iT EdU Microplate Assay (Life Technologies) in the 384 well-plate format and then follow-up with BrdU/7AAD and propidium iodide flow cytometer assays. […] Fluorescence emission is measured on a Hybrid HT plate reader (FIG. 9A) as well as on a Trophos Plate RUNNER HD that captures images of the wells (FIG. 9B). […]

The subject of data set [5] is merlin-null Schwann cells. The data set can be described thus: Apo-ONE Homogeneous caspase-3/7 assay. The class given is cell-based, mouse. The note with it: 8 hours, 384-well format. As to the method:
(§1) FIGS. 8A-C. Phenotypic Apoptosis Assays. (A). Merlin-null Schwann cells in a 384-well format were incubated with the indicated compounds for 8 hours. Caspase-3/7 activity was measure with Apo-ONE Homogeneous Assay (Promega). n=32 wells. (B). Merlin-null Schwann cells in a 6-well format were treated with compounds (10 uM) for 24 hours. Membrane asymmetry was detected with Violet Ratiometric assay and read on a BD Cantos II flow cytometer. (C). Population distribution for B is shown.
(§2) In yet another aspect, compounds may be identified which induce programmed cell death or inhibit proliferation of Merlin-null Schwann cells. Merlin-pathway assays may be conducted to identify the subset of compounds that modulate the activity of known merlin pathways. The effector caspase cascade is activated in many extrinsic and intrinsic cell death pathways^29. […] The effect of compounds on caspase-3 activity can be measured by first lysing the cells and centrifuging to pellet the debris. […] Enzyme activity may be measured on an Envision plate reader at Ex400 nm/Em505 nm. The enzyme activity may be calculated from a standard curve generated using recombinant caspase-3 enzyme (R&D System, Inc.) and expressed as fold-increase in activity. […] Transfer of phosphatidylserine and phosphatidylethanolamine from the inner to the outer leaflet of the plasma membrane changes the membrane potential that is detected by F2N12S. […]

The subject of data set [6] is merlin-null Schwann cells. The note with it: 10 µM.
In data set [7] the test system is merlin-null Schwann cells. The note with it: 10 µM. The source holds these as a separate data set.
Procedure: as §4, §3
Data set [8] relates to normal nf2^flox2/flox2 Schwann cells. Conditions: 10 µM.
Procedure: as §3
Data set [9] relates to merlin-null Schwann cells. The data set can be described thus: MultiTox-Fluor Multiplex Cytotoxicity Assay (assay validation and LOPAC pilot screen). Format: cell-based, mouse. The note with it: 50 μM; 384-well plate, 5,000 cells/well. On the procedure: Merlin-null Schwann cells were seeded at 5,000 cells/well in an uncoated Corning Cell-Bind 384-well plate. A) Result of a rapamycin dose response study conducted with the MultiTox-Fluor assay is shown. B) Cell viability in the presence of 0.5% DMSO or 0.5% DMSO plus 50 μM rapamycin (RM) added 4 hours after plating was measured 24 hours later as described in the FIG. 3 legend.
A pilot screen of Sigma's LOPAC was conducted to test the reliability of our system. The 1280 compounds were tested at 10 μM in 0.5% DMSO in single wells. They were added 4 hours after cell plating and the MultiTox-Fluor assay was run 24 hours later. The positive control included cells treated with 50 μM rapamycin in 0.5% DMSO and the negative control included cells treated with 0.5% DMSO. The signals for live and dead protease activities were collected sequentially. […] The screen yielded 40 hits using a cut-off value equal to 80% of the live:dead signal of the rapamycin positive control which was equivalent to 50% of live cell signal (FIG. 5). The hits represent a spectrum of compounds that fall into 5 basic categories; 1) inhibitors of signaling kinases, 2) cell-cycle inhibitors, 3) pro-apoptotic agents, 4) receptor inhibitors and 5) modulators of cell metabolism.

Data set [10] has as its system merlin-null Schwann cells. The data set can be described thus: Violet Ratiometric Membrane Asymmetry Probe/Dead Cell Apoptosis assay (flow cytometer). The note with it: 10 uM, 24 hours, 6-well format. The class given is cell-based, mouse. On the procedure: as §1, §2
Where [11] appears, read: 10 uM, 8 replicates, 384 well plate, two independently derived merlin-null Schwann cell lines at P13-23.

Counter-ions that a name gives are not always drawn. Like-named read-outs stand apart in the source and are kept apart here.

For the compound `N#C/C(=C\c1ccc(-c2cc(Cl)ccc2Cl)o1)C(=O)Nc1cccc2ncccc12` [AGK2, 2-Cyano-3-[5-(2,5-dichlorophenyl)-2-furanyl]-N-5-quinolinyl-2-propenamide], the “Selectivity Assay, cell viability” value in data set [1] (10 uM) was 42 % of DMSO Control. Moreover, the “Orthogonal Assay Average of two, cell viability” value (“Orthogonal Assay Average of two” below) in data set [2] (10 uM) is given as 78.6 % of DMSO Control. In addition, in data set [2] (Merlin-null Schwann cells L1P12), the “activity on viability in orthogonal screen and dose response” value is listed as “confirmed”. Moreover, the cell viability in data set [3] (10 uM, 24 hours, lines L1, L2 at P12-18, CellTiter-Fluor) is on record as < 50 % of DMSO control. Moreover, the “Primary Assay (m +/− sd), cell viability” value in [3] (setting [11]) is on record as 65 +/− 14 % of DMSO Control. Also, in data set [4] (24 hours of drug treatment and S-phase labelling for the final 3 hours), the “anti-proliferative effects on the cells” value is on record as “did not reveal clear anti-proliferative effects”. Further, in data set [5], the “mechanism of apoptotic death with respect to caspase-3/7 activity” value is “caspase3/7-independent”.

As for `CC(C)C(=O)Nc1ncc(-c2cc(C(F)F)nn2-c2c(Cl)cccc2Cl)s1` [BMS-5], the “Orthogonal Assay Average of two” value in data set [6] was 63.2 % of DMSO Control. Besides, the “Primary Assay (m +/− sd), cell viability” value in data set [7] is 65 +/− 14 % of DMSO Control. For the same compound, in [4] (5 uM, 22 hours), the “PI labeling and BrdU cell cycle profiles” value was “accumulate in G2/M”. In data set [5], the “mechanism of apoptotic death with respect to caspase-3/7 activity” value is listed as “caspase3/7-independent”.

Regarding `Ic1ccccc1CNC1C2CCN(CC2)C1C(c1ccccc1)c1ccccc1` [L-703,606 oxalate salt hydrate, cis-2-(Diphenylmethyl)-N-[(2-iodophenyl)methyl]-1-azabicyclo[2.2.2]octan-3-amine], the “Orthogonal Assay Average of two” value in data set [2] (10 uM) was 40.6 % of DMSO Control. Moreover, the “Selectivity Assay, cell viability” value in data set [8] is 33 % of DMSO Control. The “Primary Assay (m +/− sd), cell viability” value in data set [3] (setting [11]) is given as 62 +/− 11 % of DMSO Control.

Turning to `CO[C@H]1C[C@@H]2CC[C@@H](C)[C@@](O)(O2)C(=O)C(=O)N2CCCC[C@H]2C(=O)O[C@H]([C@H](C)C[C@@H]2CC[C@@H](O)[C@H](OC)C2)CC(=O)[C@H](C)/C=C(\C)[C@@H](O)[C@@H](OC)C(=O)[C@H](C)C[C@H](C)/C=C/C=C/C=C/1C` [Rapamycin, rapamycin], in data set [1] (50 uM), the “Selectivity Assay, cell viability” value is on record as 30 % of DMSO Control. For the same compound, the “Orthogonal Assay Average of two” value in data set [2] (50 uM) is listed as 10.6 % of DMSO Control. Further, in data set [9], the “Viability of cells (live cell protease)” value is reported as 20+/−1.4 % of the DMSO control. Moreover, the “Primary Assay (m +/− sd), cell viability” value in [3] (50 uM, two merlin-null Schwann cell lines at P13-23) was 18 +/− 3 % of DMSO Control.

With chelerythrine chloride, the “apoptotic death (Q1+Q3) of cells” value in data set [10] worked out at 93%.
